Experimental data taken from article PMC8479016, “High-throughput screening and evaluation of repurposed drugs targeting the SARS-CoV-2 main protease” (Signal Transduction and Targeted Therapy, 2021).
Where “and” joins values, the source holds several entries; their conditions need not be identical. Equal values may be shown once. Entries after “also recorded” stand apart in the source; their conditions may differ. Read-outs that look alike come from different tables or passages of the source.

Legend:
SARS-CoV-2 M^pro [1] = target: T1, SARS-CoV-2 M^pro (Severe acute respiratory syndrome coronavirus 2, UniProt P0DTD1); test: biochemical; format: binding
SARS-CoV-2 M^pro [2] = target: T1, SARS-CoV-2 M^pro; test: biochemical; format: biochemical; settings: for inhibitory efficacy on the enzymatic activity of M^pro (inhibition rate): 20 μM drug, 1.5 µM M^pro, 10 μM substrate, 3~6 h
SARS-CoV-2 [3] = test: Antiviral activity assay in infected Vero E6 cells, viral RNA copies by qRT-PCR; format: cell-based; settings: Vero E6, MOI 0.01, 48 h after infection
SARS-CoV-2 [4] = test system: SARS-CoV-2; parameters: method as in earlier work; settings: cellular experiment; cited from earlier work
[5] = SPR, steady-state affinity model, 25℃, read-out: KD (equilibrium dissociation constant)

## Cc1onc(-c2ccccc2Cl)c1C(=O)N[C@@H]1C(=O)N2[C@@H]1SC(C)(C)[C@@H]2C(=O)O [Cloxacillin]
SARS-CoV-2 M^pro [1]; [5]
  Kd: ≤ 55 µM and 54.6 µM
SARS-CoV-2 M^pro [2]
  inhibitory efficacy on the enzymatic activity of M^pro (inhibition rate): moderate inhibition

## C[C@@H]1CCO[C@H]2Cn3cc(C(=O)NCc4ccc(F)cc4F)c(=O)c(O)c3C(=O)N12 [Dolutegravir]
SARS-CoV-2 M^pro [1]; [5]
  Kd: ≤ 55 µM and 18.1 µM
SARS-CoV-2 M^pro [2]
  inhibitory efficacy on the enzymatic activity of M^pro (inhibition rate): moderate inhibition

## CC(C)(O)CNc1nc(Nc2ccnc(C(F)(F)F)c2)nc(-c2cccc(C(F)(F)F)n2)n1 [Enasidenib]
SARS-CoV-2 M^pro [1]; [5]
  Kd: ≤ 55 µM and 9.31 µM

## CN1CCN(c2ccc(C(=O)Nc3n[nH]c4ccc(Cc5cc(F)cc(F)c5)cc34)c(NC3CCOCC3)c2)CC1 [Entrectinib]
SARS-CoV-2 M^pro [1]; [5]
  Kd: ≤ 55 µM and 0.68 µM
SARS-CoV-2 M^pro [2]; 200 nM M^pro, 5-fold gradient 0.032-20 µM, 3 h, read-out: IC50
  IC50: 10.6 µM
SARS-CoV-2 M^pro [2]
  inhibitory efficacy on the enzymatic activity of M^pro (inhibition rate): outstanding inhibitory efficacy
SARS-CoV-2 [3]; Severe acute respiratory syndrome coronavirus 2, Vero C1008
  EC50: 0.198 µM

## CC(C)C[C@H](NC(=O)OCc1ccccc1)C(=O)N[C@@H](CC1CCNC1=O)C(O)S(=O)(=O)O (stereo partly drawn) [GC376]
SARS-CoV-2 [3]
  EC50: 0.074 µM

## CC(C)(C)NC(=O)[C@@H]1C[C@@H]2CCCC[C@@H]2CN1C[C@@H](O)[C@H](Cc1ccccc1)NC(=O)[C@H](CC(N)=O)NC(=O)c1ccc2ccccc2n1 [Saquinavir]
SARS-CoV-2 M^pro [1]
  Kd: 2.96 ± 2 µM
SARS-CoV-2 M^pro [1]; read-out: KD (equilibrium dissociation constant)
  Kd: ≤ 55 µM

## CC(C)CN(C[C@@H](O)[C@H](Cc1ccccc1)NC(=O)O[C@H]1CO[C@H]2OCC[C@H]21)S(=O)(=O)c1ccc(N)cc1 [darunavir]
SARS-CoV-2 M^pro [2]
  inhibitory efficacy on the enzymatic activity of M^pro (inhibition rate): either no or only weak inhibitory effects

## Cc1cccc(C)c1OCC(=O)N[C@@H](Cc1ccccc1)[C@@H](O)C[C@H](Cc1ccccc1)NC(=O)[C@H](C(C)C)N1CCCNC1=O [lopinavir]
SARS-CoV-2 M^pro [2]
  inhibitory efficacy on the enzymatic activity of M^pro (inhibition rate): either no or only weak inhibitory effects

## Cc1c(O)cccc1C(=O)N[C@@H](CSc1ccccc1)[C@H](O)CN1C[C@H]2CCCC[C@H]2C[C@H]1C(=O)NC(C)(C)C [nelfinavir]
SARS-CoV-2 M^pro [1]
  Kd: 2.36 µM
SARS-CoV-2 M^pro [2]
  IC50: 41.5 µM
  inhibitory efficacy on the enzymatic activity of M^pro (inhibition rate): either no or only weak inhibitory effects; also recorded: failed to block the enzymatic activity
SARS-CoV-2 [4]
  EC50: 1.13 µM
